Assay results as given in article PMC5218480 (PLoS ONE, 2017).

System: MV-4-11 cells
Assay: Gene expression microarray analysis (Affymetrix PrimeView) and GSEA
Format: cell-based, human
Set-up: RFU PODN (11730768_x_at) / Fold change /veh PODN (11730768_x_at) / RFU LINC00158 (11744669_a_at) / Fold change /veh LINC00158 (11744669_a_at) / RFU DUSP10 (11751237_a_at) / Fold change /veh DUSP10 (11751237_a_at) / RFU ID3 (11757404_x_at) / Fold change /veh ID3 (11757404_x_at) / RFU PLEKHG5 (11737974_s_at) / Fold change /veh PLEKHG5 (11737974_s_at) / RFU LRRC4B (11730491_at) / Fold change /veh LRRC4B (11730491_at) / RFU GIMAP4 (11747438_a_at) / Fold change /veh GIMAP4 (11747438_a_at) / RFU KRT8 (11758183_x_at) / Fold change /veh KRT8 (11758183_x_at) / RFU CNN1 (11734310_a_at) / Fold change /veh CNN1 (11734310_a_at) / RFU VPS37D (11726825_at) / Fold change /veh VPS37D (11726825_at) / RFU C10orf10 (11716522_x_at) / Fold change /veh C10orf10 (11716522_x_at) / RFU KIR2DL2 /// KIR2DL4 /// KIR2DL5A /// KIR2DL5B /// KIR2DS1 /// KIR2DS2 /// KIR2DS3 /// KIR2DS4 /// KIR3DL3 /// KIR3DL3 /// KIR3DS1 (11738374_at) / Fold change /veh KIR2DL2 /// KIR2DL4 /// KIR2DL5A /// KIR2DL5B /// KIR2DS1 /// KIR2DS2 /// KIR2DS3 /// KIR2DS4 /// KIR3DL3 /// KIR3DL3 /// KIR3DS1 (11738374_at) / RFU C1QL1 (11718748_at) / Fold change /veh C1QL1 (11718748_at) / RFU TMPRSS4 (11747572_a_at) / Fold change /veh TMPRSS4 (11747572_a_at) / RFU HAMP (11756126_x_at) / Fold change /veh HAMP (11756126_x_at) / RFU RNFT2 (11725882_a_at) / Fold change /veh RNFT2 (11725882_a_at) / RFU NR4A2 (11747474_a_at) / Fold change /veh NR4A2 (11747474_a_at) / RFU ABCC12 (11746883_a_at) / Fold change /veh ABCC12 (11746883_a_at) / RFU TMEM136 (11760407_x_at) / Fold change /veh TMEM136 (11760407_x_at) / RFU CLDN22 /// WWC2 (11732394_at) / Fold change /veh CLDN22 /// WWC2 (11732394_at) / RFU HLA-DPB1 (11760878_x_at) / Fold change /veh HLA-DPB1 (11760878_x_at) / RFU SPINT1 (11716480_a_at) / Fold change /veh SPINT1 (11716480_a_at) / RFU GAP43 (11754022_s_at) / Fold change /veh GAP43 (11754022_s_at) / RFU A4GNT (11735810_at) / Fold change /veh A4GNT (11735810_at) / RFU PRB3 (11715151_x_at) / Fold change /veh PRB3 (11715151_x_at) / RFU TUBB4B (11761932_at) / Fold change /veh TUBB4B (11761932_at) / RFU CAPN14 (11732068_a_at) / Fold change /veh CAPN14 (11732068_a_at) / RFU TMCC2 (11721928_a_at) / Fold change /veh TMCC2 (11721928_a_at) / RFU IRGQ (11745062_a_at) / Fold change /veh IRGQ (11745062_a_at) / RFU FAM174B (11720279_a_at) / Fold change /veh FAM174B (11720279_a_at) / RFU TMPRSS4 (11748680_a_at) / Fold change /veh TMPRSS4 (11748680_a_at) / RFU FAM212B (11763350_a_at) / Fold change /veh FAM212B (11763350_a_at) / RFU PLEKHG5 (11743358_a_at) / Fold change /veh PLEKHG5 (11743358_a_at) / RFU ZSCAN30 (11745921_a_at) / Fold change /veh ZSCAN30 (11745921_a_at) / RFU CMKLR1 (11741424_a_at) / Fold change /veh CMKLR1 (11741424_a_at) / RFU LOC101060620 /// MAPK8IP1 (11723275_at) / Fold change /veh LOC101060620 /// MAPK8IP1 (11723275_at) / RFU SPTSSB (11747773_x_at) / Fold change /veh SPTSSB (11747773_x_at) / RFU PRSS12 (11739890_at) / Fold change /veh PRSS12 (11739890_at) / RFU BIN1 (11741810_x_at) / Fold change /veh BIN1 (11741810_x_at) / RFU WNT11 (11732464_a_at) / Fold change /veh WNT11 (11732464_a_at) / RFU C10orf10 (11716521_a_at) / Fold change /veh C10orf10 (11716521_a_at) / RFU C5orf56 (11738089_at) / Fold change /veh C5orf56 (11738089_at) / RFU CYB561 (11721691_x_at) / Fold change /veh CYB561 (11721691_x_at) / RFU ANKRD19P (11752326_a_at) / Fold change /veh ANKRD19P (11752326_a_at) / RFU OR2T12 /// OR2T33 /// OR2T8 (11738714_s_at) / Fold change /veh OR2T12 /// OR2T33 /// OR2T8 (11738714_s_at) / RFU VCAN (11748164_a_at) / Fold change /veh VCAN (11748164_a_at) / RFU JSRP1 (11732532_at) / Fold change /veh JSRP1 (11732532_at) / RFU KRTAP10-11 (11738290_x_at) / Fold change /veh KRTAP10-11 (11738290_x_at) / RFU MYO3A (11730013_a_at) / Fold change /veh MYO3A (11730013_a_at) / RFU EBF3 (11725865_a_at) / Fold change /veh EBF3 (11725865_a_at) / RFU CAMK2N1 (11719241_x_at) / Fold change /veh CAMK2N1 (11719241_x_at) / RFU C5orf56 (11738088_a_at) / Fold change /veh C5orf56 (11738088_a_at) / RFU OLFML3 (11715873_a_at) / Fold change /veh OLFML3 (11715873_a_at) / RFU LOC100653217 /// NTM (11731650_a_at) / Fold change /veh LOC100653217 /// NTM (11731650_a_at) / RFU MAPK11 (11762145_a_at) / Fold change /veh MAPK11 (11762145_a_at) / RFU FIZ1 (11724087_x_at) / Fold change /veh FIZ1 (11724087_x_at) / RFU OASL (11726364_x_at) / Fold change /veh OASL (11726364_x_at) / RFU SOX15 (11748057_x_at) / Fold change /veh SOX15 (11748057_x_at) / RFU CD79A (11719716_a_at) / Fold change /veh CD79A (11719716_a_at) / RFU HIST1H1D (11736915_at) / Fold change /veh HIST1H1D (11736915_at) / RFU CASKIN2 (11723855_a_at) / Fold change /veh CASKIN2 (11723855_a_at) / RFU LOC730098 (11760151_x_at) / Fold change /veh LOC730098 (11760151_x_at) / RFU OR4N2 (11742367_at) / Fold change /veh OR4N2 (11742367_at) / RFU PRRT2 (11749266_a_at) / Fold change /veh PRRT2 (11749266_a_at) / RFU SNX32 (11753110_a_at) / Fold change /veh SNX32 (11753110_a_at) / RFU CDHR5 (11726645_a_at) / Fold change /veh CDHR5 (11726645_a_at) / RFU RCAN1 (11760418_a_at) / Fold change /veh RCAN1 (11760418_a_at) / RFU FAM167A (11723789_a_at) / Fold change /veh FAM167A (11723789_a_at) / RFU FAM26E (11764081_at) / Fold change /veh FAM26E (11764081_at) / RFU ISYNA1 (11749810_s_at) / Fold change /veh ISYNA1 (11749810_s_at) / RFU ACY1 (11761880_at) / Fold change /veh ACY1 (11761880_at) / RFU 11764098_at / Fold change /veh 11764098_at / RFU SAMD14 (11745864_x_at) / Fold change /veh SAMD14 (11745864_x_at) / RFU NPB (11741838_a_at) / Fold change /veh NPB (11741838_a_at) / RFU TMPRSS6 (11731388_a_at) / Fold change /veh TMPRSS6 (11731388_a_at) / RFU KRTAP10-2 (11738614_at) / Fold change /veh KRTAP10-2 (11738614_at) / RFU ARHGAP8 /// PRR5-ARHGAP8 (11727945_x_at) / Fold change /veh ARHGAP8 /// PRR5-ARHGAP8 (11727945_x_at) / RFU KRTAP5-7 /// NADSYN1 (11734609_at) / Fold change /veh KRTAP5-7 /// NADSYN1 (11734609_at) / RFU RASL12 (11751679_a_at) / Fold change /veh RASL12 (11751679_a_at) / RFU CDKN2B (11736163_a_at) / Fold change /veh CDKN2B (11736163_a_at) / RFU PRF1 (11729649_at) / Fold change /veh PRF1 (11729649_at) / RFU, ZNF638 /// ZNF638-IT1 / Fold change vs veh, ZNF638 /// ZNF638-IT1 / RFU, PANK3 / Fold change vs veh, PANK3 / RFU, SH3YL1 / Fold change vs veh, SH3YL1 / RFU, ZEB2 / Fold change vs veh, ZEB2 / RFU, NRIP1 / Fold change vs veh, NRIP1 / RFU, PTTG1IP / Fold change vs veh, PTTG1IP / RFU, CAPN2 / Fold change vs veh, CAPN2 / RFU, MED14 / Fold change vs veh, MED14 / RFU, SNORA58 / Fold change vs veh, SNORA58 / RFU, C1orf63 / Fold change vs veh, C1orf63 / RFU, LRRFIP1 / Fold change vs veh, LRRFIP1 / RFU, NDUFAF7 / Fold change vs veh, NDUFAF7 / RFU, SLC12A2 / Fold change vs veh, SLC12A2 / RFU, IBTK / Fold change vs veh, IBTK / RFU, ESF1 / Fold change vs veh, ESF1 / Fold change vs veh, TMEM50B / RFU, TAOK1 / Fold change vs veh, TAOK1 / RFU, ACBD3 / Fold change vs veh, ACBD3 / RFU, TMA16 / Fold change vs veh, TMA16 / RFU, RWDD3 / Fold change vs veh, RWDD3 / RFU, BCAT1 / Fold change vs veh, BCAT1 / RFU, EDEM3 / Fold change vs veh, EDEM3 / RFU, TMEM33 / Fold change vs veh, TMEM33 / RFU, WDR75 / Fold change vs veh, WDR75 / RFU, AHCTF1 / Fold change vs veh, AHCTF1 / RFU, TFRC / Fold change vs veh, TFRC / RFU, ZDHHC17 / Fold change vs veh, ZDHHC17 / RFU, NOM1 / Fold change vs veh, NOM1 / RFU, ARL8B / Fold change vs veh, ARL8B / RFU, ZBTB11 / Fold change vs veh, ZBTB11 / RFU, TAMM41 / Fold change vs veh, TAMM41 / RFU, KIAA1704 /// LOC100996395 / Fold change vs veh, KIAA1704 /// LOC100996395 / RFU, ING1 / Fold change vs veh, ING1 / RFU, TRMT61B / Fold change vs veh, TRMT61B / RFU, FUBP3 / Fold change vs veh, FUBP3 / RFU, TP53 / Fold change vs veh, TP53 / RFU, TNKS2 / Fold change vs veh, TNKS2 / RFU, ZFP14 / Fold change vs veh, ZFP14 / RFU, ACTR2 / Fold change vs veh, ACTR2 / RFU, PPP3R1 / Fold change vs veh, PPP3R1 / RFU, PIK3R1 / Fold change vs veh, PIK3R1 / RFU, HNRNPA1 / Fold change vs veh, HNRNPA1 / RFU, RNF170 / Fold change vs veh, RNF170 / RFU, ZNF28 / Fold change vs veh, ZNF28 / RFU, RNGTT / Fold change vs veh, RNGTT / RFU, OGT / Fold change vs veh, OGT / RFU, BRD1 / Fold change vs veh, BRD1 / RFU, MARS / Fold change vs veh, MARS / RFU, ZNF655 / Fold change vs veh, ZNF655 / RFU, FAHD1 / Fold change vs veh, FAHD1 / RFU, BDP1 / Fold change vs veh, BDP1 / RFU, LRRCC1 / Fold change vs veh, LRRCC1 / RFU, ARID1A / Fold change vs veh, ARID1A / RFU, ZNF146 / Fold change vs veh, ZNF146 / RFU, ZNF330 / Fold change vs veh, ZNF330 / RFU, GPN3 / Fold change vs veh, GPN3 / RFU, C9orf123 / Fold change vs veh, C9orf123 / RFU, N4BP2L2 / Fold change vs veh, N4BP2L2 / RFU, ARFIP1 / Fold change vs veh, ARFIP1 / RFU, FAM179B / Fold change vs veh, FAM179B / RFU, BCL10 / Fold change vs veh, BCL10 / RFU, UHRF1BP1L / Fold change vs veh, UHRF1BP1L / RFU, BET1 / Fold change vs veh, BET1 / RFU, CNOT2 / Fold change vs veh, CNOT2 / RFU, ZNF268 / Fold change vs veh, ZNF268 / Fold change vs veh, ZNF507 / RFU, DGCR2 / Fold change vs veh, DGCR2 / RFU, WDSUB1 / Fold change vs veh, WDSUB1 / Fold change vs veh, HSP90B1 /// MIR3652 / RFU, ADSS / Fold change vs veh, ADSS / RFU, GK / Fold change vs veh, GK / RFU, ZNF148 / Fold change vs veh, ZNF148 / RFU, TAF9 / Fold change vs veh, TAF9 / RFU, SLC1A5 / Fold change vs veh, SLC1A5 / RFU, SLMO2 / Fold change vs veh, SLMO2 / RFU, ABCC4 / Fold change vs veh, ABCC4 / RFU, LOC101060439 /// RAP1B / Fold change vs veh, LOC101060439 /// RAP1B / RFU, RFX7 / Fold change vs veh, RFX7 / RFU, GTPBP10 / Fold change vs veh, GTPBP10 / RFU, CNEP1R1 / Fold change vs veh, CNEP1R1 / RFU, BIVM-ERCC5 /// ERCC5 / Fold change vs veh, BIVM-ERCC5 /// ERCC5 / RFU, ILF3 / Fold change vs veh, ILF3 / RFU 11762660_at / Fold change /veh 11762660_at / RFU VCAN (11757783_s_at) / Fold change /veh VCAN (11757783_s_at) / RFU DDX43 (11728927_at) / Fold change /veh DDX43 (11728927_at) / RFU KRT8 (11758188_x_at) / Fold change /veh KRT8 (11758188_x_at) / RFU NKD1 (11759106_at) / Fold change /veh NKD1 (11759106_at) / RFU SRD5A1 (11742802_a_at) / Fold change /veh SRD5A1 (11742802_a_at) / RFU TPSAB1 /// TPSB2 (11721975_s_at) / Fold change /veh TPSAB1 /// TPSB2 (11721975_s_at) / RFU GSTM3 (11746129_a_at) / Fold change /veh GSTM3 (11746129_a_at) / RFU IL23R (11737362_x_at) / Fold change /veh IL23R (11737362_x_at) / RFU TMEM51 (11727254_a_at) / Fold change /veh TMEM51 (11727254_a_at) / RFU PIWIL2 (11732686_x_at) / Fold change /veh PIWIL2 (11732686_x_at) / RFU ORM1 (11744905_x_at) / Fold change /veh ORM1 (11744905_x_at) / RFU CCDC152 (11743942_at) / Fold change /veh CCDC152 (11743942_at) / RFU ECM1 (11717891_a_at) / Fold change /veh ECM1 (11717891_a_at) / RFU IL23R (11748794_a_at) / Fold change /veh IL23R (11748794_a_at) / RFU TNFAIP8L3 (11732012_x_at) / Fold change /veh TNFAIP8L3 (11732012_x_at) / RFU MBOAT4 (11741988_at) / Fold change /veh MBOAT4 (11741988_at) / RFU 11764193_at / Fold change /veh 11764193_at / RFU TMEM53 (11763286_at) / Fold change /veh TMEM53 (11763286_at) / RFU MAGEB2 (11727129_at) / Fold change /veh MAGEB2 (11727129_at) / RFU TMEM200A (11744735_a_at) / Fold change /veh TMEM200A (11744735_a_at) / RFU CCDC152 (11751479_a_at) / Fold change /veh CCDC152 (11751479_a_at) / RFU FAM211A (11726209_a_at) / Fold change /veh FAM211A (11726209_a_at) / RFU RGS16 (11746705_a_at) / Fold change /veh RGS16 (11746705_a_at) / RFU VCAN (11755009_s_at) / Fold change /veh VCAN (11755009_s_at) / RFU RHOB (11743442_s_at) / Fold change /veh RHOB (11743442_s_at) / RFU RGS16 (11720943_a_at) / Fold change /veh RGS16 (11720943_a_at) / RFU RGS16 (11720944_at) / Fold change /veh RGS16 (11720944_at) / RFU, VPS4B / Fold change vs veh, VPS4B / RFU, CREB1 / Fold change vs veh, CREB1 / RFU, DNAJC13 / Fold change vs veh, DNAJC13 / RFU, GNAQ / Fold change vs veh, GNAQ / RFU, CDK5R1 / Fold change vs veh, CDK5R1 / RFU, ZRANB3 / Fold change vs veh, ZRANB3 / RFU, CUL4A / Fold change vs veh, CUL4A / RFU, CCNY / Fold change vs veh, CCNY / RFU, UFL1 / Fold change vs veh, UFL1 / RFU, COG3 / Fold change vs veh, COG3 / RFU, DIAPH2 / Fold change vs veh, DIAPH2 / RFU, SKA2 / Fold change vs veh, SKA2 / RFU, AFF3 / Fold change vs veh, AFF3 / RFU, LMF1 / Fold change vs veh, LMF1 / RFU, IPO11 / Fold change vs veh, IPO11 / RFU, DFFB / Fold change vs veh, DFFB / RFU, FOXP1 / Fold change vs veh, FOXP1 / RFU, CARD8 / Fold change vs veh, CARD8 / RFU, STRN3 / Fold change vs veh, STRN3 / RFU, ADK / Fold change vs veh, ADK / RFU, RASSF2 / Fold change vs veh, RASSF2 / RFU, WIPF1 / Fold change vs veh, WIPF1 / RFU, LARP1B / Fold change vs veh, LARP1B / RFU, RASA1 / Fold change vs veh, RASA1 / RFU, RB1 / Fold change vs veh, RB1 / RFU, PPFIA1 / Fold change vs veh, PPFIA1 / RFU, MAT2A / Fold change vs veh, MAT2A / RFU, CCT5 / Fold change vs veh, CCT5 / RFU, WDR92 / Fold change vs veh, WDR92 / RFU, CUX1 / Fold change vs veh, CUX1 / RFU, TTC7A / Fold change vs veh, TTC7A / RFU, TMEM135 / Fold change vs veh, TMEM135 / RFU, DEPTOR / Fold change vs veh, DEPTOR / RFU, CPM / Fold change vs veh, CPM / RFU, DNAJB6 / Fold change vs veh, DNAJB6 / RFU, CACNA2D3 / Fold change vs veh, CACNA2D3 / RFU, DTX4 / Fold change vs veh, DTX4 / RFU, TFCP2 / Fold change vs veh, TFCP2 / RFU, GMCL1 /// GMCL1P1 / Fold change vs veh, GMCL1 /// GMCL1P1 / RFU, AEBP2 / Fold change vs veh, AEBP2 / RFU, SNHG1 /// SNORD22 /// SNORD25 /// SNORD26 /// SNORD27 /// SNORD28 /// SNORD29 /// SNORD31 / Fold change vs veh, SNHG1 /// SNORD22 /// SNORD25 /// SNORD26 /// SNORD27 /// SNORD28 /// SNORD29 /// SNORD31 / Fold change (Aza/veh), C12orf56 (ProbeSet 11735607_a_at) / Fold change (ACY-1035/veh), C12orf56 (ProbeSet 11735607_a_at) / Fold change (Aza/veh), FGFR1OP (ProbeSet 11751329_s_at) / Fold change (ACY-1035/veh), FGFR1OP (ProbeSet 11751329_s_at) / Fold change (Aza/veh), VPS36 (ProbeSet 11739960_a_at) / Fold change (ACY-1035/veh), VPS36 (ProbeSet 11739960_a_at) / RFU SYPL1 (11715823_x_at) / Fold change /veh SYPL1 (11715823_x_at) / RFU IGFBP7 (11715501_s_at) / Fold change /veh IGFBP7 (11715501_s_at) / RFU REEP3 (11722064_at) / Fold change /veh REEP3 (11722064_at) / RFU IGLL1 (11728026_x_at) / Fold change /veh IGLL1 (11728026_x_at): dose or concentration left out as unconfirmed
Conditions: MV-4-11 cells, 48 hours

Nc1ccc(-c2cccs2)cc1NC(=O)c1ccc2c(c1)cc(C1CC1)n2CCN1CCOCC1 [ACY-1035]
Fold change /veh PRF1 (11729649_at): 1.05
